Reference: patent publication US20260347372A1, “SMALL MOLECULE INHIBITORS OF KRAS G12D MUTANT” (MERCK SHARP & DOHME LLC, priority 2023, published 2026)
pIC50: −log10 of the molar value.

How the values were obtained:
KRAS G12D = KRAS G12D (Homo sapiens, UniProt P01116, G12D); experiment: SOS-catalyzed nucleotide exchange assay, KRAS G12D (Procedure A); format: biochemical; conditions: guanine nucleotide exchange (GNE)
In short: (§1)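 Compounds in 10-point 3-fold series sat 60 min with biotin-KRAS/Bodipy-GDP/Tb-streptavidin complex, then human SOS and 3 mM GTP were added. G13D: 1.25 nM KRAS, no SOS, 30 min. WT and G12D: 1 nM with 40 nM SOS, 60 min. G12C (C51S/C80L/C118S): 3 nM/40 nM, 60 min. Curves fitted from normalised TR-FRET 520/495 ratio.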

KRAS WT = KRAS WT (Homo sapiens, UniProt P01116); experiment: SOS-catalyzed nucleotide exchange assay, KRAS WT (Procedure A); format: biochemical; conditions: GNE
KRAS WT, sequence (P01116 with tags, fused parts or gaps isoform P01116-2): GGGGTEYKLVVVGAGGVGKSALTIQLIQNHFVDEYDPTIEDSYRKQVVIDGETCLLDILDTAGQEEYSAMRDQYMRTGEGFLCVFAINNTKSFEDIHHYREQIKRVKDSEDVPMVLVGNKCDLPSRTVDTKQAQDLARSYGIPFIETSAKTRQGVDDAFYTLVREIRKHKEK
In short: as §1

KRAS G12C = KRAS G12C (Homo sapiens, UniProt P01116, C118S/C51S/C80L/G12C); experiment: SOS-catalyzed nucleotide exchange assay, KRAS G12C (Procedure A); format: biochemical; conditions: GNE
KRAS G12C, sequence (P01116 with tags, fused parts or gaps isoform P01116-2 G12C/C51S/C80L/C118S): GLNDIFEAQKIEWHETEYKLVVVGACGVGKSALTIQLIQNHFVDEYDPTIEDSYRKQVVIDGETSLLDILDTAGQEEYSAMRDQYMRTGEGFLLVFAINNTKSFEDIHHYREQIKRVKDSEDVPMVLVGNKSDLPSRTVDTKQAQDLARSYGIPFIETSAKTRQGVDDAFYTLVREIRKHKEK
Text: (§2) Procedure for SOS-Catalyzed Nucleotide Exchange Assay for KRAS-WT, G12C/D/V, G13D, HRAS, and NRAS (Procedure A)
(§3) Recombinant KRAS-G12C protein used in this assay has an additional triple mutation (C51S/C80L/C118S). Whereas KRAS-WT, G12D/V, G13D, HRAS and NRAS are in context of their WT protein sequence background. Specifically, the SOS-catalyzed nucleotide exchange assay utilizes a preformed TR-FRET complex containing a specific biotinylated RAS protein (KRAS-WT, G12C/V/D, G13D, HRAS, NRAS; described above) with Bodipy-GDP, and Terbium-streptavidin. Compounds are preincubated with this complex for 60 minutes. Subsequently, recombinant human SOS protein and unlabeled GTP are added to initiate the exchange reaction. Small molecule inhibitors stabilize the Bodipy-GDP complex whereas the untreated protein rapidly exchanges Bodipy-GDP for unlabeled GTP resulting in reduced TR-FRET signal.
(§4) To assemble the preformed TR-FRET complexes, each biotinylated RAS protein is diluted to 2 μM in an EDTA Buffer (20 mM HEPES pH 7.5, 50 mM sodium chloride, 10 mM EDTA, and 0.01% Tween) and incubated at room temperature for one hour. This mixture is then further diluted to 90 nM in an Assay Buffer (20 mM HEPES pH 7.5, 150 mM sodium chloride, 10 mM magnesium chloride, and 0.005% Tween) containing 15 nM of Terbium-Streptavidin (Invitrogen, catalog #PV3577) and 900 nM of Bodipy-GDP (Invitrogen, catalog #G22360) and incubated at room temperature for six hours. It should be noted that this preformed TR-FRET complex for each of the RAS protein were made ahead of time, aliquoted and stored at −80° C. until the day of the experiment.
(§5) Each test compound (10 mM stock in DMSO) is diluted in DMSO to make a final-10-point, 3-fold dilution and is acoustically dispensed into a 384-well assay plate (Corning, catalog #3820) using an Echo 550 (Labcyte). Each well of the assay plate receives 3 μL of a specific 3×RAS preformed TR-FRET complex and 3 μL of Assay Buffer and is incubated at room temperature for 60 minutes (preincubation time). Each well then receives 3 μL of 3× recombinant human SOS protein and GTP (Sigma, G8877) in Assay Buffer and is incubated at room temperature for 30 minutes (G13D), 60 minutes (KRAS WT/G12C/D, H/NRAS) or 90 minutes for G12V. The final reaction in each well of 9 μL consists of 3 mM GTP, specific Ras and SOS proteins in the following concentrations: KRAS-G12C/SOS=3 nM/40 nM, KRAS-WT and G12D/SOS=1 nM/40 nM, KRAS-G12V/SOS=1.25 nM/160 nM, KRAS-G13D/SOS=1.25 nM/0 nM, HRAS and NRAS=1.25 nM/40 nM.
(§6) The time-resolved fluorescence resonance energy transfer (TR-FRET) signal is measured on an Envision (PerkinElmer) plate reader: Excitation filter=340 nm; emission1=495 nm; emission2=520 nm; dichroic mirror=D400/D505; delay time=[…]. The signal of each well is determined as the ratio of the emission at 520 nm to that at 495 nm. Percent effect of each well is determined after normalization to control wells containing DMSO (no effect) or a saturating concentration of inhibitor (max effect). The apparent effect as a function of compound concentration is fit to a four-parameter logistic equation.
(§7) For Example No. 14, nucleotide exchange assays for KRAS G12D, WT, G12C, and G12V were performed according to Procedure B. All the other compounds were tested according to Procedure A.

KRAS G12V = KRAS G12V (Homo sapiens, UniProt P01116, G12V); experiment: SOS-catalyzed nucleotide exchange assay, KRAS G12V (Procedure A); format: biochemical; conditions: GNE
KRAS G12V, sequence (P01116 with tags, fused parts or gaps isoform P01116-2 G12V): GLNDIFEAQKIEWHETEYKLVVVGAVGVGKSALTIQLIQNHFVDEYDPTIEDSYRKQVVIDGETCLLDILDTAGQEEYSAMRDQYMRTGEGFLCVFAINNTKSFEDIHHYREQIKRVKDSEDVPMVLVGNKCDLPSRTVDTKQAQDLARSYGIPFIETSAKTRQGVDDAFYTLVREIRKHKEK
In short: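 Biotinylated KRAS G12V was loaded with Bodipy-GDP alongside Terbium-streptavidin to form a TR-FRET complex, which was preincubated with compounds for 60 minutes in 384-well plates. Human SOS protein and unlabeled GTP were then added for 90 minutes, giving final concentrations of 1.25 nM KRAS-G12V, 160 nM SOS and 3 mM GTP. The 520/495 nm emission ratio was read on an Envision.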

KRAS G13D = KRAS G13D (Homo sapiens, UniProt P01116, G13D); experiment: SOS-catalyzed nucleotide exchange assay, KRAS G13D (Procedure A); format: biochemical; conditions: GNE
KRAS G13D, sequence (P01116 with tags, fused parts or gaps isoform P01116-2 G13D): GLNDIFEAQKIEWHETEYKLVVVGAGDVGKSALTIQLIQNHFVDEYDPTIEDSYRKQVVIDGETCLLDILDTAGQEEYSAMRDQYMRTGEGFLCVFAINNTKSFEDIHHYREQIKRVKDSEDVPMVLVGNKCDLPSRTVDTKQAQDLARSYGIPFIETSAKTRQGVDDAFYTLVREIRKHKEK
Text: as §2, §3, §4, §5, §6, §7

HRAS = HRAS (Homo sapiens, UniProt P01112); experiment: SOS-catalyzed nucleotide exchange assay, HRAS (Procedure A); format: biochemical; conditions: GNE
HRAS, sequence (P01112 with tags, fused parts or gaps): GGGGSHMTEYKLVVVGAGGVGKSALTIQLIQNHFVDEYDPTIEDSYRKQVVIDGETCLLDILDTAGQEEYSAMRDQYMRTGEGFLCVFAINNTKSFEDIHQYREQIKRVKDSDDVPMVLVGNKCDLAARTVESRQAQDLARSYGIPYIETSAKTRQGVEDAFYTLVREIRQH
Text: as §2, §3, §4, §5, §6, §7

NRAS = NRAS (Homo sapiens, UniProt P01111); experiment: SOS-catalyzed nucleotide exchange assay, NRAS (Procedure A); format: biochemical; conditions: GNE
NRAS, sequence (P01111 with tags, fused parts or gaps): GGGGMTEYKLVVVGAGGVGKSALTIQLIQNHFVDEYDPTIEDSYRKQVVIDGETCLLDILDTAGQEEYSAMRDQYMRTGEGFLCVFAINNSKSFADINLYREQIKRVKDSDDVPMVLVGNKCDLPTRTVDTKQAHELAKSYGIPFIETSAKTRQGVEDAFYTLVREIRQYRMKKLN
Text: as §2, §3, §4, §5, §6, §7

AsPC-1 cells = biological target: T1, AsPC-1 cells (Homo sapiens, UniProt P01116, G12D); experiment: Cellular phospho-ERK assay, AsPC-1 cells (KRAS G12D); format: cell-based; conditions: 2 hours, read-out: AsPC1 pERK IC50
T1 construct: p-ERK/total ERK AlphaSureFire read-out
T1 sequence (P01116 1-188 isoform P01116-2 G12D): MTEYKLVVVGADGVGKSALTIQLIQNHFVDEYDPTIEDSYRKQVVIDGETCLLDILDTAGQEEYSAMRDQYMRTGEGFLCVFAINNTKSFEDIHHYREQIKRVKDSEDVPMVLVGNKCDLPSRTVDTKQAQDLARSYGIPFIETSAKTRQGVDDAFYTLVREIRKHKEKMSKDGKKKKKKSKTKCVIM
In short: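 Compound was titrated 10-point in 3-fold steps (top 30 μM) on KRAS G12D homozygous pancreatic lines PANC08.13 and AsPC-1 for 2 h at 37 °C. The p-ERK/total ERK ratio was measured by multiplex AlphaLISA SureFire and fitted with a 4-parameter logistic model to give IC50.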

KRAS G12D, sequence (P01116 with tags, fused parts or gaps isoform P01116-2 G12D): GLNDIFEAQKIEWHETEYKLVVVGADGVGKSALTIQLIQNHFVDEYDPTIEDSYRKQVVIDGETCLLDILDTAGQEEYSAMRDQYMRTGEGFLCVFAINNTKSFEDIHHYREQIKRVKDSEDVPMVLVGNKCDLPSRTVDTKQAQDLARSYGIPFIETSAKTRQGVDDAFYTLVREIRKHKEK

Row | Compound | pIC50 (KRAS G12D) | pIC50 (KRAS WT) | pIC50 (KRAS G12C) | pIC50 (KRAS G12V) | pIC50 (KRAS G13D) | pIC50 (HRAS) | pIC50 (NRAS) | pIC50 (AsPC-1 cells)
1 | F[C@H]1CN2CCC[C@@]2(COc2nc(N3C[C@H]4CC[C@@H](C3)N4)c3c(n2)sc2c(-c4c(C5CC5)c(Cl)cc5[nH]ncc45)nccc23)C1 [Ex-20, 4-((1R,5S)-3,8-diazabicyclo[3.2.1]octan-3-yl)-8-(6-chloro-5-cyclopropyl-1H-indazol-4-yl)-2-(((2R,7aS)-2-fluorotetrahydro-1H-pyrrolizin-7a(5H)-yl)methoxy)pyrido[4′,3′:4,5]thieno[2,3-d]pyrimidine] | 8.09 | 5.94 | 6.38 | 5.91 | 6.54 | < 4.96 | < 4.96 | 6.53
2 | Cc1cc2[nH]ncc2c(-c2nccc3c2sc2nc(OC[C@@]45CCCN4C[C@H](F)C5)nc(N4C[C@@H]5C[C@H]4CN5)c23)c1C(F)(F)F [Ex-69, 4-((1S,4S)-2,5-diazabicyclo[2.2.1]heptan-2-yl)-2-(((2R,7aS)-2-fluorotetrahydro-1H-pyrrolizin-7a(5H)-yl)methoxy)-8-(6-methyl-5-(trifluoromethyl)-1H-indazol-4-yl)pyrido[4′,3′:4,5]thieno[2,3-d]pyrimidine] | 7.45 | 5.31 | 5.76 | < 4.95 | 5.92 | < 4.96 | < 4.96 | 5.81
3 | Cc1cc2[nH]ncc2c(-c2nccc3c2sc2nc(OC[C@@]45CCCN4C[C@H](F)C5)nc(N4C[C@H]5C[C@@H]4CN5)c23)c1C(F)(F)F [Ex-70, 4-((1R,4R)-2,5-diazabicyclo[2.2.1]heptan-2-yl)-2-(((2R,7aS)-2-fluorotetrahydro-1H-pyrrolizin-7a(5H)-yl)methoxy)-8-(6-methyl-5-(trifluoromethyl)-1H-indazol-4-yl)pyrido[4′,3′:4,5]thieno[2,3-d]pyrimidine] | 6.08 | 5.12 | 6.02 | 5.01 | 5.65 | < 4.96 | < 4.96 | 5.29
4 | C#Cc1cccc2cc3[nH]ncc3c(-c3nccc4c3sc3nc(OC[C@@]56CCCN5C[C@H](F)C6)nc(N5C[C@H]6CC[C@@H](C5)N6)c34)c12 [Ex-55, 4-((1R,5S)-3,8-diazabicyclo[3.2.1]octan-3-yl)-8-(5-ethynyl-1H-benzo[f]indazol-4-yl)-2-(((2R,7aS)-2-fluorotetrahydro-1H-pyrrolizin-7a(5H)-yl)methoxy)pyrido[4′,3′:4,5]thieno[2,3-d]pyrimidine] | 8.88 | 6.83 | 7.13 | 6.98 | 7.37 | < 4.96 | < 4.96 | 7.60
5 | Cc1cc2[nH]ncc2c(-c2nccc3c2sc2nc(OC[C@]4(C#N)C[C@H]4S(C)(=O)=O)nc(N4C[C@H]5CC[C@@H](C4)N5)c23)c1C(F)(F)F [Ex-32, (1R,2R)-1-(((4-((1R,5S)-3,8-diazabicyclo[3.2.1]octan-3-yl)-8-(6-methyl-5-(trifluoromethyl)-1H-indazol-4-yl)pyrido[4′,3′:4,5]thieno[2,3-d]pyrimidin-2-yl)oxy)methyl)-2-(methylsulfonyl)cyclopropane-1-carbonitrile] | 5.99 | < 4.95 | < 4.96 | < 4.95 | < 4.96 | < 4.96 | < 4.96 | < 4.52
6 | Fc1ccc2cc3[nH]ncc3c(-c3nccc4c3sc3nc(OC[C@@]56CCCN5C[C@H](F)C6)nc(N5C[C@H]6CC[C@@H](C5)N6)c34)c2c1Cl [Ex-59, 4-((1R,5S)-3,8-diazabicyclo[3.2.1]octan-3-yl)-8-(5-chloro-6-fluoro-1H-benzo[f]indazol-4-yl)-2-(((2R,7aS)-2-fluorotetrahydro-1H-pyrrolizin-7a(5H)-yl)methoxy)pyrido[4′,3′:4,5]thi-eno[2,3-d]pyrimidine] | 8.03 | 5.78 | 6.74 | 5.86 | 6.58 | < 4.96 | < 4.96 | 6.66
7 | Cc1cc2[nH]ncc2c(-c2nccc3c2sc2nc(OCC4(S(C)(=O)=O)CC4)nc(N4C[C@H]5CC[C@@H](C4)N5)c23)c1C(F)(F)F [Ex-33, 4-((1R,5S)-3,8-diazabicyclo[3.2.1]octan-3-yl)-8-(6-methyl-5-(trifluoromethyl)-1H-indazol-4-yl)-2-((1-(methylsulfonyl)cyclopropyl)meth-oxy)pyrido[4′,3′:4,5]thieno[2,3-d]pyrimidine] | 5.10 | < 4.95 | < 4.96 | < 4.95 | < 4.96 | < 4.96 | < 4.96 | 4.69
8 | Cc1cc2[nH]ncc2c(-c2nccc3c2sc2nc(OC[C@@]45CCCN4C[C@H](F)C5)nc(N4[C@@H]5CC[C@H]4CN(C)C5)c23)c1C(F)(F)F [Ex-73, 2-(((2R,7aS)-2-fluorotetrahydro-1H-pyrrolizin-7a(5H)-yl)methoxy)-8-(6-methyl-5-(trifluoromethyl)-1H-indazol-4-yl)-4-((1R,5S)-3-methyl-3,8-diazabicyclo[3.2.1]octan-8-yl)pyrido[4′,3′:4,5]thieno[2,3-d]pyrimidine] | 5.86 | < 4.95 | < 4.96 | < 4.95 | < 4.96 | < 4.96 | < 4.96 | 5.32
9 | Cc1cc2[nH]ncc2c(-c2nccc3c2sc2nc(OCC4CCS(=O)(=O)CC4)nc(N4C[C@H]5CC[C@@H](C4)N5)c23)c1C(F)(F)F [Ex-36, 4-(((4-((1R,5S)-3,8-diazabicyclo[3.2.1]octan-3-yl)-8-(6-methy1-5-(trifluoromethyl)-1H-indazol-4-yl)pyrido[4′,3′:4,5]thieno[2,3-d]pyrimidin-2-yl)oxy)methyl)tetrahydro-2H-thiopyran 1,1-dioxide] | 5.39 | < 4.95 | < 4.96 | < 4.95 | < 4.96 | < 4.96 | < 4.96 | 4.55
